What all share (experiment): biochemical
One assay concerns the target T1, SARS-CoV-2 3CL^pro (Severe acute respiratory syndrome coronavirus 2, UniProt P0DTD1).
T1 construct: […]; made in house; host or cells: Escherichia coli

In a further assay the target is T2, HCoV-229E 3CL^pro (Human coronavirus 229E, UniProt P0C6X1).
T2 construct: […]; made in house; host or cells: E. coli BL21 (DE3)

The next assay concerns the target MERS-CoV 3CL^pro (Middle East respiratory syndrome-related coronavirus, UniProt K9N7C7).
The target in a further assay is SARS-CoV 3CL^pro (Severe acute respiratory syndrome coronavirus, UniProt P0C6X7).

The record followed here is patent US20260125421A1, “ANTIVIRAL COMPOUNDS” (Hoffmann-La Roche Inc., priority 2022, published 2026).

T2 sequence (P0C6X1 2966-3267): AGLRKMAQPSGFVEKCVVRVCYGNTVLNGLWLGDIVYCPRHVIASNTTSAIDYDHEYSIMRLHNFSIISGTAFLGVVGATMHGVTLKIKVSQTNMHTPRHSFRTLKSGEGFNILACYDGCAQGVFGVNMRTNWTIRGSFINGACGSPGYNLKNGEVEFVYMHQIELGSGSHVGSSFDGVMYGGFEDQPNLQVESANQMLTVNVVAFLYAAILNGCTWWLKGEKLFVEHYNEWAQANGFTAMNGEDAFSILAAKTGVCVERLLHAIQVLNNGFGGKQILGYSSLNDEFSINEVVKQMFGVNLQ
MERS-CoV 3CL^pro, sequence (K9N7C7 3248-3553): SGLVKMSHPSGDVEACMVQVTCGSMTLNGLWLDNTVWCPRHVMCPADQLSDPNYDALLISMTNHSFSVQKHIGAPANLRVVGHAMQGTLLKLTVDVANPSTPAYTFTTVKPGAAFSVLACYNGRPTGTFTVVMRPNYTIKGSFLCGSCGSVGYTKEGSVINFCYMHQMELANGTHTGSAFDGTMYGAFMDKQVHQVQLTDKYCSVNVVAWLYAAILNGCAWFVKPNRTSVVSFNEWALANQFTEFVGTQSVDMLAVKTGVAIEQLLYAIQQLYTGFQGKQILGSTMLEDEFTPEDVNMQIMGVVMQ

The term IC50 denotes the concentration that inhibits the measured activity by half. Lower therefore signals greater potency in that assay. Regarding `C[C@H]1C[C@H](CN(NC(=O)[C@@H]2[C@H]3CCC[C@H]3CN2C(=O)[C@@H](NC(=O)[C@@H]2CC2(F)F)C(C)(C)C)C(=O)[C@H](F)Cl)C(=O)N1` [Example 28, (1S)-N-[(1S)-1-[(3S,3aS,6aR)-3-[[[(2R)-2-chloro-2-fluoro-acetyl]-[[(3R,5S)-5-methyl-2-oxo-pyrrolidin-3-yl]methyl]amino]carbamoyl]-3,3a,4,5,6,6a-hexahydro-1H-cyclopenta[c]pyrrole-2-carbonyl]-2,2-dimethyl-propyl]-2,2-difluoro-cyclopropanecarboxamide], the IC50 on SARS-CoV-2 3CL^pro was 30 nM; against HCoV-229E 3CL^pro, 492 nM; at MERS-CoV 3CL^pro it was 1160 nM; against SARS-CoV 3CL^pro it was 74 nM.
Take `C[C@@H]1C[C@H](CN(NC(=O)[C@@H]2[C@H]3CCC[C@H]3CN2C(=O)[C@@H](NC(=O)[C@@H]2CC2(F)F)C(C)(C)C)C(=O)[C@@H](F)Cl)C(=O)N1` [Example 29, (1S)-N-[(1S)-1-[(3S,3aS,6aR)-3-[[[(2S)-2-chloro-2-fluoro-acetyl]-[[(3R,5R)-5-methyl-2-oxo-pyrrolidin-3-yl]methyl]amino]carbamoyl]-3,3a,4,5,6,6a-hexahydro-1H-cyclopenta[c]pyrrole-2-carbonyl]-2,2-dimethyl-propyl]-2,2-difluoro-cyclopropanecarboxamide]: the IC50 against SARS-CoV-2 3CL^pro stood at 36 nM; against HCoV-229E 3CL^pro, 233 nM; against MERS-CoV 3CL^pro, 344 nM; at SARS-CoV 3CL^pro, 93 nM.
In the case of `C[C@@H]1C[C@@H](CN(NC(=O)[C@@H]2[C@H]3CCC[C@H]3CN2C(=O)[C@@H](NC(=O)[C@@H]2CC2(F)F)C(C)(C)C)C(=O)[C@@H](F)Cl)C(=O)N1` [Example 30, (1S)-N-[(1S)-1-[(3S,3aS,6aR)-3-[[[(2S)-2-chloro-2-fluoro-acetyl]-[[(3S,5R)-5-methyl-2-oxo-pyrrolidin-3-yl]methyl]amino]carbamoyl]-3,3a,4,5,6,6a-hexahydro-1H-cyclopenta[c]pyrrole-2-carbonyl]-2,2-dimethyl-propyl]-2,2-difluoro-cyclopropanecarboxamide], the IC50 against SARS-CoV-2 3CL^pro is 8 nM; against HCoV-229E 3CL^pro, 66 nM; against MERS-CoV 3CL^pro, 91 nM; on SARS-CoV 3CL^pro, 11 nM.
For `C[C@H]1C[C@H](CN(NC(=O)[C@@H]2[C@@H]3[C@H](CN2C(=O)[C@@H](NC(=O)[C@@H]2CC2(F)F)C(C)(C)C)C3(C)C)C(=O)[C@H](F)Cl)C(=O)N1` [Example 31, (1S)-N-[(1S)-1-[(1R,2S,5S)-2-[[[(2R)-2-chloro-2-fluoro-acetyl]-[[(3R,5S)-5-methyl-2-oxo-pyrrolidin-3-yl]methyl]amino]carbamoyl]-6,6-dimethyl-3-azabicyclo[3.1.0]hexane-3-carbonyl]-2,2-dimethyl-propyl]-2,2-difluoro-cyclopropanecarboxamide], the IC50 at SARS-CoV-2 3CL^pro worked out at 25 nM; on HCoV-229E 3CL^pro, 116 nM; against MERS-CoV 3CL^pro, 555 nM; on SARS-CoV 3CL^pro, 53 nM.
As to `C[C@@H]1C[C@H](CN(NC(=O)[C@@H]2[C@@H]3[C@H](CN2C(=O)[C@@H](NC(=O)[C@@H]2CC2(F)F)C(C)(C)C)C3(C)C)C(=O)[C@@H](F)Cl)C(=O)N1` [Example 32, (1S)-N-[(1S)-1-[(1R,2S,5S)-2-[[[(2S)-2-chloro-2-fluoro-acetyl]-[[(3R,5R)-5-methyl-2-oxo-pyrrolidin-3-yl]methyl]amino]carbamoyl]-6,6-dimethyl-3-azabicyclo[3.1.0]hexane-3-carbonyl]-2,2-dimethyl-propyl]-2,2-difluoro-cyclopropanecarboxamide], the IC50 came out at 65 nM against SARS-CoV-2 3CL^pro, 70 nM at HCoV-229E 3CL^pro, 200 nM on MERS-CoV 3CL^pro and 116 nM on SARS-CoV 3CL^pro.
For the compound `C[C@H]1C[C@@H](CN(NC(=O)[C@@H]2[C@@H]3[C@H](CN2C(=O)[C@@H](NC(=O)[C@@H]2CC2(F)F)C(C)(C)C)C3(C)C)C(=O)[C@H](F)Cl)C(=O)N1` [Example 33, (1S)-N-[(1S)-1-[(1R,2S,5S)-2-[[[(2R)-2-chloro-2-fluoro-acetyl]-[[(3S,5S)-5-methyl-2-oxo-pyrrolidin-3-yl]methyl]amino]carbamoyl]-6,6-dimethyl-3-azabicyclo[3.1.0]hexane-3-carbonyl]-2,2-dimethyl-propyl]-2,2-difluoro-cyclopropanecarboxamide], the IC50 against SARS-CoV-2 3CL^pro worked out at 6 nM; against HCoV-229E 3CL^pro it was 26 nM; against MERS-CoV 3CL^pro, 72 nM; against SARS-CoV 3CL^pro, 13 nM.
Regarding `C[C@@H]1C[C@@H](CN(NC(=O)[C@@H]2[C@@H]3[C@H](CN2C(=O)[C@@H](NC(=O)[C@@H]2CC2(F)F)C(C)(C)C)C3(C)C)C(=O)[C@@H](F)Cl)C(=O)N1` [Example 34, (1S)-N-[(1S)-1-[(1R,2S,5S)-2-[[[(2S)-2-chloro-2-fluoro-acetyl]-[[(3S,5R)-5-methyl-2-oxo-pyrrolidin-3-yl]methyl]amino]carbamoyl]-6,6-dimethyl-3-azabicyclo[3.1.0]hexane-3-carbonyl]-2,2-dimethyl-propyl]-2,2-difluoro-cyclopropanecarboxamide], the IC50 against SARS-CoV-2 3CL^pro worked out at 8 nM; at HCoV-229E 3CL^pro, 37 nM; against MERS-CoV 3CL^pro it was 80 nM; at SARS-CoV 3CL^pro it was 14 nM.
On the same counts, the results for `CC(C)(C)[C@H](NC(=O)[C@@H]1CC1(F)F)C(=O)N1C[C@@H]2CCC[C@@H]2[C@H]1C(=O)NN(C[C@H]1C(=O)N[C@@H]2C[C@@H]21)C(=O)[C@H](F)Cl` [Example 35, (1S)-N-[(1S)-1-[(3S,3aS,6aR)-3-[[[(2R)-2-chloro-2-fluoro-acetyl]-[[(1R,4S,5R)-3-oxo-2-azabicyclo[3.1.0]hexan-4-yl]methyl]amino]carbamoyl]-3,3a,4,5,6,6a-hexahydro-1H-cyclopenta[c]pyrrole-2-carbonyl]-2,2-dimethyl-propyl]-2,2-difluoro-cyclopropanecarboxamide] are 10 nM, 41 nM, 117 nM and 7 nM.
On to `CC(C)(C)[C@H](NC(=O)[C@@H]1CC1(F)F)C(=O)N1C[C@@H]2CCC[C@@H]2[C@H]1C(=O)NN(C[C@H]1C(=O)N[C@H]2C[C@H]21)C(=O)[C@H](F)Cl` [Example 36, (1S)-N-[(1S)-1-[(3S,3aS,6aR)-3-[[[(2R)-2-chloro-2-fluoro-acetyl]-[[(1S,4S,5S)-3-oxo-2-azabicyclo[3.1.0]hexan-4-yl]methyl]amino]carbamoyl]-3,3a,4,5,6,6a-hexahydro-1H-cyclopenta[c]pyrrole-2-carbonyl]-2,2-dimethyl-propyl]-2,2-difluoro-cyclopropanecarboxamide], for which the IC50 is 13 nM on SARS-CoV-2 3CL^pro, 54 nM against HCoV-229E 3CL^pro, 174 nM against MERS-CoV 3CL^pro and 14 nM on SARS-CoV 3CL^pro.
For the compound `CC(C)(C)[C@H](NC(=O)[C@@H]1CC1(F)F)C(=O)N1C[C@@H]2CCC[C@@H]2[C@H]1C(=O)NN(C[C@H]1C(=O)N[C@@H]2C[C@@H]21)C(=O)[C@@H](F)Cl` [Example 37, (1S)-N-[(1S)-1-[(3S,3aS,6aR)-3-[[[(2S)-2-chloro-2-fluoro-acetyl]-[[(1R,4S,5R)-3-oxo-2-azabicyclo[3.1.0]hexan-4-yl]methyl]amino]carbamoyl]-3,3a,4,5,6,6a-hexahydro-1H-cyclopenta[c]pyrrole-2-carbonyl]-2,2-dimethyl-propyl]-2,2-difluoro-cyclopropanecarboxamide], the IC50 against SARS-CoV-2 3CL^pro stood at 17 nM; on HCoV-229E 3CL^pro, 191 nM; against MERS-CoV 3CL^pro, 320 nM; on SARS-CoV 3CL^pro it was 21 nM.
On the same counts, the results for `CC(C)(C)[C@H](NC(=O)[C@@H]1CC1(F)F)C(=O)N1C[C@@H]2CCC[C@@H]2[C@H]1C(=O)NN(C[C@@H]1C(=O)N[C@@H]2C[C@H]12)C(=O)[C@H](F)Cl` [Example 38, (1S)-N-[(1S)-1-[(3S,3aS,6aR)-3-[[[(2R)-2-chloro-2-fluoro-acetyl]-[[(1R,4R,5R)-3-oxo-2-azabicyclo[3.1.0]hexan-4-yl]methyl]amino]carbamoyl]-3,3a,4,5,6,6a-hexahydro-1H-cyclopenta[c]pyrrole-2-carbonyl]-2,2-dimethyl-propyl]-2,2-difluoro-cyclopropanecarboxamide] are 27 nM, 134 nM, 398 nM and 54 nM.
As to `CC(C)(C)[C@H](NC(=O)[C@@H]1CC1(F)F)C(=O)N1C[C@@H]2CCC[C@@H]2[C@H]1C(=O)NN(C[C@H]1C(=O)N[C@H]2C[C@H]21)C(=O)[C@@H](F)Cl` [Example 39, (1S)-N-[(1S)-1-[(3S,3aS,6aR)-3-[[[(2S)-2-chloro-2-fluoro-acetyl]-[[(1S,4S,5S)-3-oxo-2-azabicyclo[3.1.0]hexan-4-yl]methyl]amino]carbamoyl]-3,3a,4,5,6,6a-hexahydro-1H-cyclopenta[c]pyrrole-2-carbonyl]-2,2-dimethyl-propyl]-2,2-difluoro-cyclopropanecarboxamide], the IC50 at SARS-CoV-2 3CL^pro worked out at 29 nM; against HCoV-229E 3CL^pro it was 207 nM; at MERS-CoV 3CL^pro, 289 nM; against SARS-CoV 3CL^pro it was 34 nM.
With `CC(C)(C)[C@H](NC(=O)[C@@H]1CC1(F)F)C(=O)N1C[C@@H]2CCC[C@@H]2[C@H]1C(=O)NN(C[C@@H]1C(=O)N[C@@H]2C[C@H]12)C(=O)[C@@H](F)Cl` [Example 40, (1S)-N-[(1S)-1-[(3S,3aS,6aR)-3-[[[(2S)-2-chloro-2-fluoro-acetyl]-[[(1R,4R,5R)-3-oxo-2-azabicyclo[3.1.0]hexan-4-yl]methyl]amino]carbamoyl]-3,3a,4,5,6,6a-hexahydro-1H-cyclopenta[c]pyrrole-2-carbonyl]-2,2-dimethyl-propyl]-2,2-difluoro-cyclopropanecarboxamide], the IC50 on SARS-CoV-2 3CL^pro was determined as 64 nM; at HCoV-229E 3CL^pro it was 257 nM; at MERS-CoV 3CL^pro, 538 nM; against SARS-CoV 3CL^pro, 122 nM.
